Laboratory results as given in patent US6624149B2, “Method for nucleic acid transfection of cells” (Genteric, Inc., priority 2000, dated 2003).

Test system: rat salivary gland (submandibular gland)
Assay: Intraductal transfection of rat salivary gland with pCMV.FOX.Luc-2, luciferase assay
Type: in vivo
Protocol: Nucleic acid/transition metal enhancer mixtures were prepared by sequentially adding deionized water or a buffered solution, DNA, and a desired transition metal enhancer to a polystyrene tube with mixing. “Free” (i.e., “Naked”) DNA controls were prepared by sequentially adding DNA to water or a buffered solution
Male Sprague-Dawley rats (260-280 g) were fasted the night prior to treatment. After administration of the anesthesia (see Section 6.1.3), both right and left salivary gland ducts (specifically, Wharton's duct) were cannulated with fine polyurethane tubing (i.d. 0.005″) and cemented into the desired location. Atropine was then administered subcutaneously (0.5 mg/kg) and, after eight minutes, 50 μl of the nucleic acid/transition metal enhancer mixture was injected, infused, instilled or administered at the ductal orifice or directly into the duct at any point along its length. See Goldfine, Nature Biotechnology 15:1378, 1997.
Regardless of whether a liposome/transition metal/nucleic acid mixture or a nucleic acid/transition metal enhancer mixture was delivered, the tubing and mixture was kept in place for ten additional minutes after application of the mixture prior to removal. At 48 hours post atropine administration, the rats were anesthetized by intraperitoneal injection of pentobarbital (50 mg/kg). The right and left submandibular glands were surgically removed, and the tissues were assayed for any observable reporter gene (luciferase of hGH) expression using the methods described below.
The presently claimed invention describes a new method using a combination of a transition metal enhancer and a nucleic acid of interest for gene delivery. The present invention provides a method which may enhance gene expression by improving the efficiency of gene delivery. This change in gene expression can be quantitated using various assays, such as the luciferase assay. de Wet et al., Molec. Cell Biol. 7:725, 1987. In various experiments described herein, the right and left submandibular glands were removed from the male Sprague-Dawley rats at 48 hours post administration of the pCMV.FOX.Luc-2 containing solution. In additional experiments other organs, such as the rat lungs, were used.
In experiments in which submandibular glands were tested, the amount of luciferase present in the right and left submandibular gland of each male Sprague-Dawley rat was measured independently and treated as separate, individual experiments (e.g., trials) because the amount of luciferase expressed by one submandibular gland is independent of the amount of luciferase expressed in the other submandibular gland. Therefore, each submandibular gland was independently lysed in lysis buffer (1.0 ml buffer per 0.1 g tissue) to create a lysis homogenate. The lysis buffer contained 100 mM K2PO4 pH 7.0, 1 mM dithiothreitol, and 1% Triton X-100. A 100 μl aliquot of lysis homogenate from each submandibular gland was analyzed for luciferase activity (de Wet et al., Molec. Cell Biol. 7:725, 1987) using a Monolight 2010 luminometer (Analytical Luminescence Laboratories). Accordingly, luciferase light emissions from each aliquot of the lysis homogenate were measured over a ten second period.
Activity was expressed as relative light units, values collectively representing the assay conditions, luciferase concentration, luminometer photomultiplier tube sensitivity and background. Using well known techniques, the luciferase light units may be converted, for example, to picograms of luciferase protein. See, e.g., Felgner et al., U.S. Pat. No. 5,580,899 at Example 13. All experiments were performed in duplicate. In experiments using submandibular glands, data from each individual submandibular gland lysis homogenate is reported as a single trial.

In the case of `[Cl][Co][Cl]` [CoCl2, cobalt chloride], the “Average relative light units” value (Table 4, CoCl2 0.3 mM, 32 μg DNA in 50 μl, 48 hours) is reported as 37219 relative light units and the “Average relative light units” value (Table 4, CoCl2 0.9 mM, 32 μg DNA in 50 μl, 48 hours) is reported as 44926 relative light units.

`[Cl][Cu]` [Cu, cuprous chloride] was tested, and the “Average relative light units” value (Table 3, metal chloride 0.6 mM, 32 μg DNA in 50 μl, Tris-HCl/EDTA, 48 hours, eight glands) was 17667 relative light units, the “Average relative light units” value (Table 3, metal chloride 0.9 mM, 32 μg DNA in 50 μl, Tris-HCl/EDTA, 48 hours, eight glands) was 42204 relative light units and the “Average relative light units” value (Table 3, metal chloride 1.2 mM, 32 μg DNA in 50 μl, Tris-HCl/EDTA, 48 hours, eight glands) was 17194 relative light units.

`[Cl][Ni][Cl]` [Ni, nickel chloride] was tested, and the “Average relative light units” value (Table 2, metal chloride 0.3 mM, 32 μg DNA in 50 μl, 48 hours, eight glands) was 18391 relative light units and the “Average relative light units” value (Table 2, metal chloride 0.9 mM, 32 μg DNA in 50 μl, 48 hours, eight glands) was 65121 relative light units.

For `CC(=O)[O-].CC(=O)[O-].[Zn+2]` [Zn(CH3CO2)2, zinc acetate], the “Average relative light units” value (rat, in vivo) was 309965 relative light units.

`O=S(=O)([O-])[O-].[Zn+2]` [ZnSO4, zinc sulfate] was tested, and the “Average relative light units” value (Table 6, zinc 3.6 mM, 128 μg DNA in 50 μl, 48 hours) was 355676 relative light units.
